Experimental findings from publication PMC8379256, “A xanthene derivative, DS20060511, attenuates glucose intolerance by inducing skeletal muscle-specific GLUT4 translocation in mice” (Communications Biology, 2021) are described below.

One test relates to isolated skeletal muscle. The test can be described thus: 2-DG uptake in muscles isolated from NC-fed and HFD-fed mice. Particulars: for Raio: 2-DG uptake in isolated muscles; for Raio / 2DOG Trn / IC 2DOG: individual muscles; for 2DOG Trn / IC 2DOG: isolated muscles. More on the design: species or system mouse. As for the experimental part:
Fig. 8 Acute and chronic DS20060511 treatment improves glucose intolerance in HFD-fed and db/db mice. a Blood glucose and plasma insulin levels during an oral GTT in normal-chow (NC)- and high-fat diet (HFD)-fed mice (n = 5). Vehicle or DS20060511 (30 mg kg^−1) was given orally 15 min before the oral glucose administration (1.5 g kg^−1). Values shown are means ± SEM. *P < 0.05, **P < 0.01, ***P < 0.001 vs. the HFD vehicle by the t-test. b Effects of 10 μM DS20060511 and 100 nM insulin on 2-DG uptake in muscles isolated from NC-fed (n = 6) and HFD-fed (n = 5) mice. Values shown are means ± SEM. **P < 0.01 by one-way ANOVA followed by Tukey’s test. c, d Changes in the blood glucose levels and AUC on day 1 and day 28 during refeeding (n = 6) in db/db mice treated chronically with DS20060511 (10 mg kg^−1 day^−1). Values shown are means ± SEM. *P < 0.05, **P < 0.01, ***P < 0.001 vs. vehicle by the t-test. e Change of the HbA1c levels in the db/db (n = 6) mice at 4 weeks. Values shown are means ± SEM. *P < 0.05 vs. vehicle by the t-test.
C57BL/6 and db/db mice were purchased from CLEA Japan, Tokyo, Japan. GLUT4- knockout mice were generated at RIKEN BioResource Center, Tsukuba, Japan, according to a previously described method. eNOS-knockout mice were kindly provided by Dr. Masato Tsutsui[41],[42]. The mice were group-housed under controlled illumination (12:12 h light-dark cycle) and temperature (23 ± 2 °C) conditions and given free access to normal chow and water, unless otherwise specified. The HFD-fed obese mice were prepared by feeding C57BL/6 mice a HFD for at least 8 weeks from 6 weeks of age. […] Male mice were used for all the experiments in this study. The animal care and experimental procedures used in the study were approved by The University of Tokyo Animal Care Committee (Approval number: 27-3), and the study was carried out in accordance with the Animal Experimentation Guidelines of Daiichi Sankyo Co., Ltd (Approved number: 20000411).
The soleus or EDL muscle was removed from anesthetized mice (isoflurane anesthesia) that had been denied access to food overnight, and incubated with oxygenated (95% O2/5% CO2) Krebs-Henseleit Bicarbonate (KHB) buffer (118.1 mM NaCl, 4.7 mM KCl, 1.1 mM KH2PO4, 1.2 mM MgSO4, 2.5 mM CaCl2, and 25 mM NaHCO3, pH7.4) in the presence of 11.1 mM glucose at 37 °C. The muscle specimens were then treated with the indicated concentrations of the compounds in KHB buffer containing 11.1 mM glucose and 8 mM mannitol for 10 min at 37 °C. Thereafter, the muscles were rinsed with KHB buffer containing 8 mM mannitol and the compounds for 5 min at 37 °C. Lastly, the muscles were treated with the compounds in KHB buffer containing 1 mM 2-DG (with 0.3 μCi mL^−1 [^3H]-2-DG) and 8 mM mannitol (with 0.03 μCi mL^−1 [^14C]-mannitol) for 10 min at 37 °C. After the muscle specimens were washed, they were lysed with 1 N NaOH and neutralized with 1 N HCl. The ^14C- and ^3H-specific activities were counted with a liquid scintillation counter. The specific uptake of 2-DG was calculated by subtracting the nonspecific uptake of mannitol from the total 2-DG uptake. To investigate the effects of muscle contraction, muscle contraction was induced by electrical stimulation with 5 Hz (1 ms pulse duration, 100 V) for 10 min (SEN-5201, Nihon Koden, Tokyo, Japan).

In test [1] the test system is 3T3-L1-GLUT4myc adipocytes. The test can be described thus: GLUT4 translocation: cell surface GLUT4myc by anti-Myc antibody assay in 3T3-L1-GLUT4myc adipocytes. Particulars: for Ratio: GLUT4 translocation normalized to vehicle; for A - background / A: Abs. (450 nm): GLUT4 translocation; for GLUT4 translocation (in words): differentiated 3T3-L1-GLUT4myc adipocytes, Fig. 1c. The format is cell-based. As for the experimental part:
The L6-GLUT4myc rat myoblast cell line was obtained from Dr. Amira Klip and Dr. Philip Bilan, through a license granted by The Hospital for Sick Children, 555 University Avenue, Toronto, Ontario, Canada M5G 1 × 8; or purchased from Kerafast, Boston, MA (ESK202)[43]. The 3T3-L1-GLUT4myc fibroblast cell line was provided by Dr. Tomoyuki Yuasa, Tokushima University[44]. L6-GLUT4myc myoblasts were grown in MEMα (32571036, Thermo Fisher Scientific, Waltham, MA) supplemented with 10% FBS and 1% antibiotics, and then induced to differentiate into myotubes in MEMα supplemented with 2% FBS and 1% antibiotics for 5–8 days. 3T3-L1-GLUT4myc fibroblasts were induced to differentiate into adipocytes as described previously,[45] with minor modifications. Briefly, cells were grown to confluence in growth medium: DMEM (10569010, Thermo Fisher Scientific) supplemented with 10% FBS and 1% antibiotics, and then induced to differentiate into adipocytes in growth medium supplemented with 1 μM dexamethasone, 2 μM rosiglitazone, 0.5 mM isobutylmethylxanthine, and 10 μg mL^−1 insulin for 2 days. The adipocytes were then cultured in growth medium supplemented with 10 μg mL^−1 insulin for a few days before being used for the experiments.
Cell surface GLUT4 levels in the L6-GLUT4myc myoblasts and myotubes were determined by antibody binding assay as described previously[43],[44], with minor modifications. Briefly, cells in a 96- or 24-well plate were starved in serum-free MEMα (0.1% BSA and 1% antibiotics) for 3 h and then treated with the indicated concentrations of DS20060511 and/or insulin for 30 min at 37 °C. After fixation with 4% paraformaldehyde, the cells were incubated with 1% glycine in PBS at 4 °C for 10 min, and blocked with 10% normal goat serum and 3% BSA in PBS at 4 °C for 30 min. The cells were then incubated with anti-c-Myc antibody (sc-40, 1:500) diluted with blocking buffer at 4 °C for 1 h, washed with cold PBS(+), incubated with HRP-conjugated anti-mouse IgG diluted with blocking buffer at 4 °C for 30 min, and then washed again. SuperSignal ELISA Pico Chemiluminescent Substrate (Thermo Fisher Scientific) was added and the luminescent signal was measured. To investigate GLUT4 translocation in the 3T3-L1-GLUT4myc adipocytes, the cells were prepared in a 24-well plate, and anti-c-Myc antibody (sc-789, 1:1000), HRP-conjugated anti-rabbit IgG and SIGMAFAST OPD regent (Sigma–Aldrich) were added for optical detection of the cell surface GLUT4myc levels. The GLUT4 translocation activity was normalized to that in the vehicle-treated group.

[2] abbreviates: HFD, DS20060511 10 μM plus Insulin 100 nM.
Setting [3] is: HFD, DS20060511 0 μM, Insulin 100 nM.
Where [4] appears, read: NC, DS20060511 0 μM, Insulin 100 nM.

“And” between values parts separate entries of the source, which are not always exact repeats. Equal entries are not always repeated.

With `COc1ccc2c(C)c(C(=O)O)ccc2c1C1C2=C(CC(C)(C)CC2=O)OC2=C1C(=O)CC(C)(C)C2` [DS20060511], in the test with isolated skeletal muscle (setting [2]), the Raio was 2.30 and 2.20 and 2.00 and 1.46 and 1.88; the “2DOG Trn” value was 457 nmol/mL and 438 nmol/mL and 436 nmol/mL and 374 nmol/mL; the “IC 2DOG” value is 292 nmol/g and 276 nmol/g and 268 nmol/g and 283 nmol/g and 257 nmol/g. In the test with isolated skeletal muscle (HFD-fed mice, 10 μM DS20060511, 100 nM insulin), the “suppression of insulin-induced 2-DG uptake in isolated skeletal muscle” value is recorded as “completely restored”. In addition, the “2DOG Trn” value in the test with isolated skeletal muscle (HFD, DS20060511 10 μM plus Insulin 100 nM, incubation time 10 min) is 45.7 µM/min and 43.8 µM/min and 39.8 µM/min and 37.4 µM/min. In test [1] (DS20060511 0.1 μM), the Ratio was 0.99 and 1.02 and 1.06; the A - background was 0.1225 and 0.1275 and 0.1195; the “A: Abs. (450 nm)” value was 0.206 and 0.211 and 0.203. Further, in test [1] (DS20060511 1 μM), the Ratio is 0.93 and 1.02 and 0.98; the A - background is 0.1225 and 0.1175 and 0.1115; the “A: Abs. (450 nm)” value is 0.206 and 0.201 and 0.195. Further, in test [1] (DS20060511 10 μM), the Ratio was 0.96 and 1.08 and 1.04; the A - background is 0.1305 and 0.1255 and 0.1155; the “A: Abs. (450 nm)” value is 0.214 and 0.209 and 0.199. The “GLUT4 translocation (in words)” value in test [1] is given as “almost no effect on GLUT4 translocation”.

On to “Insulin: Insulin (Humulin, Eli Lilly) in the in vivo experiments; Insulin solution human (I9278, Sigma–Aldrich) in the in vitro experiments”, for which the Raio in the test on isolated skeletal muscle (setting [3]) is 1.28 and 1.46 and 1.65 and 1.16 and 0.85; in the test with isolated skeletal muscle (setting [4]), 2.15 and 2.48 and 1.82 and 1.55 and 1.68 and 2.28. Besides, the “2DOG Trn” value in the test on isolated skeletal muscle (HFD, DS20060511 0 μM, Insulin 100 nM, incubation time 10 min) is 25.5 µM/min and 29.1 µM/min and 32.9 µM/min and 23.1 µM/min and 14.4 µM/min; in the test on isolated skeletal muscle (setting [3]), 255 nmol/mL and 291 nmol/mL and 329 nmol/mL and 324 nmol/mL and 259 nmol/mL; with isolated skeletal muscle (NC, DS20060511 0 μM, Insulin 100 nM, incubation time 10 min) it was 27.4 µM/min and 29.7 µM/min and 40.3 µM/min and 38.9 µM/min and 44.9 µM/min and 32.9 µM/min; in the test with isolated skeletal muscle (setting [4]), 274 nmol/mL and 297 nmol/mL and 403 nmol/mL and 389 nmol/mL and 449 nmol/mL and 329 nmol/mL. In addition, the “IC 2DOG” value is 163 nmol/g and 186 nmol/g and 216 nmol/g and 214 nmol/g and 174 nmol/g in the test with isolated skeletal muscle (setting [3]); 192 nmol/g and 210 nmol/g and 264 nmol/g and 259 nmol/g and 303 nmol/g and 223 nmol/g with isolated skeletal muscle (setting [4]). In addition, the Ratio in test [1] (Insulin 1 nM) is 1.07 and 1.09 and 1.12; in test [1] (Insulin 10 nM), 1.31 and 1.33 and 1.41; in test [1] (Insulin 100 nM) it was 1.41 and 1.46 and 1.56. Besides, the A - background was 0.1315 and 0.1345 and 0.1295 in test [1] (Insulin 1 nM); 0.1605 and 0.1705 and 0.1575 in test [1] (Insulin 10 nM); 0.1755 and 0.1885 and 0.1705 in test [1] (Insulin 100 nM). Besides, the “A: Abs. (450 nm)” value in test [1] (Insulin 1 nM) is 0.215 and 0.218 and 0.213; in test [1] (Insulin 10 nM) it was 0.244 and 0.254 and 0.241; in test [1] (Insulin 100 nM), 0.259 and 0.272 and 0.254. Besides, in test [1], the “GLUT4 translocation (in words)” value is “increased GLUT4 translocation”.
